Patent publication US12263248B2, “Compounds and compositions for intracellular delivery of therapeutic agents” (ModernaTX, Inc., priority 2018, dated 2025)

Legend:
[1] = Particle size and polydispersity index of nanoparticle compositions (Zetasizer Nano ZS); type: physicochemical; details: Table 1A; for Size (nm): lipid:DSPC:cholesterol:PEG-DMG 50:10:38.5:1.5 mol %
Experimental: A Zetasizer Nano ZS (Malvern Instruments Ltd, Malvern, Worcestershire, UK) can be used to determine the particle size, the polydispersity index (PDI) and the zeta potential of the nanoparticle compositions in 1×PBS in determining particle size and 15 mM PBS in determining zeta potential.

[2] = Encapsulation efficiency of RNA (QUANT-IT RIBOGREEN RNA assay); type: physicochemical; details: Table 1A
Experimental: For nanoparticle compositions including an RNA, a QUANT-IT™ RIBOGREEN® RNA assay (Invitrogen Corporation Carlsbad, CA) can be used to evaluate the encapsulation of an RNA by the nanoparticle composition. The samples are diluted to a concentration of approximately […] in a TE buffer solution (10 mM Tris-HCl, 1 mM EDTA, pH 7.5). 50 μL of the diluted samples are transferred to a polystyrene 96 well plate and either 50 μL of TE buffer or 50 μL of a 2% Triton X-100 solution is added to the wells. The plate is incubated at a temperature of 37° C. for 15 minutes. The RIBOGREEN® reagent is diluted 1:100 in TE buffer, and 100 μL of this solution is added to each well. The fluorescence intensity can be measured using a fluorescence plate reader (Wallac Victor 1420 Multilabel Counter; Perkin Elmer, Waltham, MA) at an excitation wavelength of, for example, about 480 nm and an emission wavelength of, for example, about 520 nm. The fluorescence values of the reagent blank are subtracted from that of each of the samples and the percentage of free RNA is determined by dividing the fluorescence intensity of the intact sample (without addition of Triton X-100) by the fluorescence value of the disrupted sample (caused by the addition of Triton X-100).

[3] = Apparent (surface) pKa of the LNP formulation (TNS assay); type: physicochemical; details: Table 1A
Experimental: Using sodium hydroxide (1 M) and hydrochloric acid (1 M), 21 unique buffers were prepared from the master buffer stock at pH values between about 3 and 12. Next, a stock of 300 μM 6-(p-Toluidino)-2-naphthalenesulfonic acid sodium salt (TNS reagent) in DMSO was prepared and the LNP was mixed with the desired formulation buffer at a concentration of 0.04 mg/mL mRNA. This assay has been validated in 1× PBS and 20 mM Tris w/8% sucrose buffer. The buffer solutions at various pH values were added to a 96-well plate in triplicate for each pH. To each well was added 3.26 μL of LNP sample at a mRNA concentration of 0.04 mg/mL and 2.0 μL of 300 μM TNS reagent solution. After careful mixing, the resulting fluorescence values were read for each plate to create a sigmoidal plot of the fluorescence values vs. buffer pH. The […] inflection point of this curve is the apparent pKa of the LNP formulation.

[4] = test system: luciferase (Luc) mRNA; experiment: Luc expression, whole body bioluminescence after intravenous administration to mice; type: in vivo; details: for Total Flux 3 hours / Total Flux 6 hours / Total Flux 24 hours: Luc mRNA; for Lipid/MC3 AUC / AUC (p/s * h): Table 3D, intravenous; for Fold increase in total body Luc Flux relative to MC3 at 6 h: Table 3A
Experimental: In order to monitor how effectively various nanoparticle compositions deliver therapeutic and/or prophylactics to targeted cells, different nanoparticle compositions including a particular therapeutic and/or prophylactic (for example, a modified or naturally occurring RNA such as an mRNA) are prepared and administered to rodent populations. Mice are intravenously, intramuscularly, intraarterially, or intratumorally administered a single dose including a nanoparticle composition with a formulation such as those provided in Example 3. In some instances, mice may be made to inhale doses. Dose sizes may range from 0.001 mg/kg to 10 mg/kg, where 10 mg/kg describes a dose including 10 mg of a therapeutic and/or prophylactic in a nanoparticle composition for each 1 kg of body mass of the mouse. A control composition including PBS may also be employed.
Upon administration of nanoparticle compositions to mice, dose delivery profiles, dose responses, and toxicity of particular formulations and doses thereof can be measured by enzyme-linked immunosorbent assays (ELISA), bioluminescent imaging, or other methods. For nanoparticle compositions including mRNA, time courses of protein expression can also be evaluated. Samples collected from the rodents for evaluation may include blood, sera, and tissue (for example, muscle tissue from the site of an intramuscular injection and internal tissue); sample collection may involve sacrifice of the animals.
The efficacy of the nanoparticle compositions presented in Table 1A was evaluated with a bioluminescence study. Formulations were administered intravenously to mice (n=6) at a dosage of 0.5 mg/kg (mpk) and bioluminescence measured at 3, 6, and 24 hour time points. The standard MC3 formulation and, in some instances, a control (e.g., a PBS control) were evaluated for comparison. […] In general, flux decreased as time progressed to less than 10% of the initial flux.
(§1) Whole body and ex vivo organ bioluminescent imaging of mice: CD-1 mice were injected 15 minutes prior to the imaging timepoint intraperitoneally (IP) with 200 μL Xenolight D-luciferin K+ salt, diluted in PBS just prior to use to a concentration of 15 mg/mL. Ex vivo imaging of organs was completed within 25 minutes of luciferin administration. All images were quantified by region of interest for total flux.

[5] = test system: luciferase (Luc) mRNA; experiment: Luc expression in liver, lung, spleen and femur 6 hours after intravenous administration; type: in vivo; details: mice, intravenous, 0.5 mpk
Experimental: The efficacy of the nanoparticle compositions presented in Table 1A was further evaluated by measuring the expression of modified luciferase in the liver, lung, spleen, and femur upon administration of a given composition. Formulations were administered intravenously to mice (n=3) at a dosage of 0.5 mpk and bioluminescence measured after 6 hours. The standard MC3 formulation and a PBS control were also tested. […] Flux in the liver was lowest for compositions including Compounds 58, 59, 137, and 141. Flux in the spleen was highest for compositions including Compounds 4, 7, 33, 34, 48, 53, 108, 129, 130, and 148, and lowest for compositions including Compounds 9, 59, 124, and 141.
as §1

Row | Structure (SMILES) | PDI [1] | Size (nm) [1] | EE (%) [2] | pKa [3] | Total Flux 3 hours ([4]; mice, i.v., 0.5 mg/kg) | Total Flux 6 hours ([4]; mice, i.v., 0.5 mg/kg) | Total Flux 24 hours ([4]; mice, i.v., 0.5 mg/kg) | Total Flux Liver [5] | Total Flux Lung [5] | Total Flux Spleen [5] | Lipid/MC3 AUC [4] | AUC (p/s * h) ([4]; Luc) | flux at all timepoints measured ([4]; mice, i.v., 0.5 mg/kg, 3, 6 and 24 hour, in words) | Fold increase in total body Luc Flux relative to MC3 at 6 h ([4]; i.v. administration) | flux measured at 6 h relative to the MC3 formulation ([4]; i.v. administration, in words) | 6 h Lipid/MC3 Avg. Luc Expression ([4]; Table 3C, i.v. administration) | Fold increase AUC Lipid/MC3 ([4]; Table 3C, i.v. administration) | AUC (h * p/s) ([4]; Table 3C, i.v. administration, Luc)
1 | CCCCCCCCCOC(=O)CCCCCCCN(CCO)CCCCCCCC(=O)Oc1ccc(CCCCC)c(CCCCC)c1 [Compound 118, 3,4-Dipentylphenyl 8-((2-hydroxyethyl)(8-(nonyloxy)-8-oxooctyl)amino)octanoate] | 0.08 | 72.1 nm | 98% | 6.14 | 1.46E+09 | 1.16E+09 | 4.37E+07 | 1.72E+08 | 1.98E+06 | 2.49E+07 | – | – | – | – | – | – | – | –
2 | CCCCCCCCCOC(=O)CCCCCCCN(CCO)CCCCCCCC(=O)OC(C)(C)C [Compound 158, tert-Butyl 8-((2-hydroxyethyl)(8-(nonyloxy)-8-oxooctyl)amino)octanoate] | 0.080 | 251.8 nm | 35.70% | 6.953 | 2.69E+05 | 9.82E+05 | 1.55E+05 | 1.99E+05 | 1.71E+04 | 1.17E+05 | <0.01 | 1.211E+007 p/s * h | significantly lower flux | – | – | – | – | –
3 | CCCCCCCCC(CCCCCCCC)OC(=O)CCCCCCCN(CCO)CCCCCCCC(=O)OC(C)(C)C [Compound 155, tert-Butyl 8-((8-(heptadecan-9-yloxy)-8-oxooctyl)(2-hydroxyethyl)amino)octanoate] | 0.240 | 208.3 nm | 37.36% | 6.576 | 2.49E+09 | 1.15E+10 | 1.99E+08 | 8.58E+08 | 1.00E+07 | 2.77E+08 | 0.66 | 1.266E+011 p/s * h | – | – | – | – | – | –
4 | CCCCCCCCCOC(=O)CCCCCCCN(CCO)CCCCCCCC(=O)OC1CCC(C2CCCCC2)CC1 (stereo not drawn) [Compound 80, [1,1′—Bi(cyclohexan)]-4-yl 8-((2-hydroxyethyl)(8-(nonyloxy)-8-oxooctyl)amino)octanoate] | 0.19 | 118 nm | 90.7% | 7.52 | 2.76E+08 | 3.26E+08 | 1.54E+07 | 1.09E+07 | 8.97E+04 | 4.71E+06 | – | – | – | – | – | – | – | –

More lines, main results first:

Row | PDI [1] | Size (nm) [1] | EE (%) [2] | pKa [3] | Structure (SMILES) | Total Flux 3 hours ([4]; mice, i.v., 0.5 mg/kg) | Total Flux 6 hours ([4]; mice, i.v., 0.5 mg/kg) | Total Flux 24 hours ([4]; mice, i.v., 0.5 mg/kg) | Total Flux Liver [5] | Total Flux Lung [5] | Total Flux Spleen [5] | Lipid/MC3 AUC [4] | AUC (p/s * h) ([4]; Luc) | flux at all timepoints measured ([4]; mice, i.v., 0.5 mg/kg, 3, 6 and 24 hour, in words) | Fold increase in total body Luc Flux relative to MC3 at 6 h ([4]; i.v. administration) | flux measured at 6 h relative to the MC3 formulation ([4]; i.v. administration, in words) | 6 h Lipid/MC3 Avg. Luc Expression ([4]; Table 3C, i.v. administration) | Fold increase AUC Lipid/MC3 ([4]; Table 3C, i.v. administration) | AUC (h * p/s) ([4]; Table 3C, i.v. administration, Luc)
5 | 0.18 | 77.4 nm | 96.8% | 6.00 | CCCCCCCCCOC(=O)CCCN(C)CCCCCCCC(=O)OC(CCCCCCCC)CCCCCCCC [Compound 126, Heptadecan-9-yl 8-(methyl(4-(nonyloxy)-4-oxobutyl)amino)octanoate] | 7.59E+09 | 1.09E+10 | 1.40E+08 | 7.41E+08 | 2.68E+06 | 1.87E+07 | – | – | – | – | – | – | – | –
6 | 0.19 | 112.9 nm | 96.71% | 6.51 | CCCCCCCCC(CCCCCCCC)OC(=O)CCCCCCCN(CCO)CCCC(=O)OCCCCCCC [Compound 54, heptadecan-9-yl 8-((4-(heptyloxy)-4-oxobutyl)(2-hydroxyethyl)amino) octanoate] | 5.36E+10 | 4.18E+10 | 9.07E+08 | 5.57E+09 | 1.12E+07 | 1.64E+08 | – | – | – | 3.80 | higher flux than MC3 formulations | – | – | –
7 | 0.12 | 63.9 nm | 98.2% | 6.36 | CCCCCCCCC(CCCCCCCC)OC(=O)CCCCCCCN(CCO)CCCCCCCC(=O)OC(CCCCCCCC)C1CC1 (stereo not drawn) [Compound 65, 1-Cyclopropylnonyl 8-((8-(heptadecan-9-yloxy)-8-oxooctyl)(2-hydroxyethyl)amino)octanoate] | 6.56E+10 | 7.01E+10 | 7.50E+08 | 9.56E+09 | 3.79E+07 | 6.57E+07 | – | – | – | 3.16 | – | – | – | –
8 | 0.230 | 91.7 nm | 98.96% | 7.27 | CCCCCCCCCOC(=O)CCCCCCCN(CCCCCCCC(=O)OC(CCCCCCCC)CCCCCCCC)CCN1CCN(C)CC1 [Compound 101, Heptadecan-9-yl 8-((2-(4-methylpiperazin-1-yl)ethyl)(8-(nonyloxy)-8-oxooctyl)amino)octanoate] | 1.89E+08 | 1.41E+08 | 3.64E+06 | 1.27E+07 | 1.77E+05 | 5.60E+06 | – | – | – | – | – | 0.019 | 0.022 | 1.8E+09 h * p/s
9 | 0.14 | 76.8 nm | 97.7% | 6.69 | CCCCCCCCC(CCCCCCCC)OC(=O)CCCCCCCN(CCO)CCCCCC(=O)OC1CCC(CCCCC)CC1 (stereo not drawn) [Compound 68, Heptadecan-9-yl 8-((2-hydroxyethyl)(6-oxo-6-((4-pentylcyclohexyl)oxy)hexyl)amino)octanoate] | 5.22E+10 | 8.16E+10 | 2.15E+09 | 8.42E+09 | 3.98E+07 | 6.69E+07 | – | – | – | 3.68 | – | – | – | –
